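Each compound was tested at five concentrations against cells in 96-well plates for 48 hours. GI50 marks 50% less growth. TGI: concentration producing complete growth inhibition.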
Key:
Test in all cases: growth of human tumour cells (NCI), 48 h
OVCAR-4 ovarian = tested on: OVCAR-4 ovarian
M14 melanoma = tested on: M14 melanoma
NCI-H226 lung = tested on: NCI-H226 lung
T-47D breast = tested on: T-47D breast
RPMI-8226 leukemia = tested on: RPMI-8226 leukemia
NCI-H23 lung = tested on: NCI-H23 lung
CCRF-CEM leukemia = tested on: CCRF-CEM leukemia
PC-3 prostate = tested on: PC-3 prostate
OVCAR-3 ovarian = tested on: OVCAR-3 ovarian
OVCAR-5 ovarian = tested on: OVCAR-5 ovarian

Row | SMILES | GI50 (OVCAR-4 ovarian) [nM] | TGI (OVCAR-4 ovarian) [µM] | GI50 (M14 melanoma) [nM] | TGI (M14 melanoma) [µM] | GI50 (NCI-H226 lung) [nM] | TGI (NCI-H226 lung) [µM] | GI50 (T-47D breast) [nM] | TGI (T-47D breast) [µM] | GI50 (RPMI-8226 leukemia) [nM] | TGI (RPMI-8226 leukemia) [µM] | GI50 (NCI-H23 lung) [nM] | TGI (NCI-H23 lung) [µM] | GI50 (CCRF-CEM leukemia) [nM] | TGI (CCRF-CEM leukemia) [µM] | GI50 (PC-3 prostate) [nM] | TGI (PC-3 prostate) [µM] | GI50 (OVCAR-3 ovarian) [nM] | TGI (OVCAR-3 ovarian) [µM] | GI50 (OVCAR-5 ovarian) [µM] | TGI (OVCAR-5 ovarian) [µM]
1 | Cc1ccc(C2=C(c3ccc(C)cc3)C3(c4ccc(C)cc4)C4C(=O)OC(=O)C4C2(c2ccc(C)cc2)S3=O)cc1 (stereo not drawn) | 59600 | > 100 | 9700 | 32.8 | 11000 | 48.3 | > 100000 | > 100 | 21200 | 89.5 | 18200 | 41.8 | 25200 | > 100 | 25000 | > 100 | 15500 | 39.4 | 96.4 | > 100
2 | Cc1ccc(S(=O)(=O)N=Nc2c(O)[nH]c3cc(O)c(C(=O)O)cc23)cc1 |  | > 100 |  | > 100 |  | > 100 |  | > 100 |  | > 100 |  | > 100 |  | > 100 |  | > 100 |  | > 100 |  | > 100
3 | O=NNc1ccc2ccccc2n1 |  | > 100 |  | > 100 |  | > 100 |  | > 100 |  | > 100 |  | > 100 |  | > 100 |  | > 100 |  | > 100 |  | > 100
4 | O=C1C(=O)c2ccccc2C(O)=C1C(C1=C(O)c2ccccc2C(=O)C1=O)c1ccc(Cl)cc1 |  | 18.6 |  | 23.7 |  | 52.9 |  | > 57.7 |  | > 39.2 |  | 27.8 |  | > 46 |  | 57.7 |  | 11.4 |  | 17.3
5 | CC(C)CNc1nc(-c2ccccc2Cl)nc2ccccc12 | 17100 | 50.5 | 19500 | 35.1 | 17700 | 35 | 35200 | > 100 | 12600 | 32.7 | 16200 | 31 | 18800 | 43.3 | 18500 | 46.4 | 17000 | 31.2 | 18.6 | 35.2
6 | CC/C=C\C[C@H]1CC=C2C(=O)C=C[C@@H]2CC=CCCCC(=O)O[C@@H](CCCCC)CC=C2C(=O)C=C[C@@H]2CC=CCCCC(=O)O[C@@H](CCCCC)CC=C2C(=O)C=C[C@@H]2CC=CCCCC(=O)O[C@@H](CCCCC)CC=C2C(=O)C=C[C@@H]2CC=CCCCC(=O)O1 | 2200 | > 7.9 | 2090 | 7.46 | 2480 | > 7.9 | 1810 | 5.12 | 1830 | 5.83 | 2340 | > 7.9 | 1650 | > 7.9 | 2380 | > 7.9 | 1660 | 4.01 | 4.02 | > 7.9
7 | CCOc1cccc(/C=N/NC(=O)c2cccc(Nc3ccnc(C(F)(F)F)c3)c2)c1O | 723 | 48.6 | 1220 | 7.88 | 827 | 9.82 | 814 | 19 | 2160 | > 100 | 1620 | 20.8 | 180 | > 100 | 3280 | > 92.8 | 401 | 24.4 | 2.33 | 60.7
8 | Nc1ncnc2c1ncn2C1C=C(CO)C(O)C1O (stereo not drawn) |  | > 56.8 |  | > 100 |  | > 100 |  | 10.2 |  | > 37 |  | 35.4 |  | 14 |  | 60.5 |  | > 85.2 |  | > 100
9 | O=C(O)c1ccc(CN2CCC(CN[C@@H]3C[C@H]3c3ccccc3)CC2)cc1 | > 100000 | > 100 | > 100000 | > 100 | > 100000 | > 100 | > 100000 | > 100 | > 100000 | > 100 | > 100000 | > 100 | > 100000 | > 100 | > 100000 | > 100 | > 100000 | > 100 | > 100 | > 100
10 | COC(=O)c1ccc2[nH]c(O)c(C(=Nc3ccc(N(C)C(=O)CN4CCN(C)CC4)cc3)c3ccc4c(c3)OCO4)c2c1 | 761 | 2.72 | 538 | 1.8 | 616 | 6.13 | 739 | 8 | 655 | 2.83 | 612 | 2.85 | 388 | 6.25 | 489 | 3.39 | 638 | 2.23 | 1.71 | 3.72
11 | C#CC1(O)C(COP(=O)(O)OCC(COP(=O)(O)OCC2OC(n3cc(F)c(=O)[nH]c3=O)CC2O)OCCCCCCCCCCCCCCCCCC)OC(n2ccc(N)nc2=O)C1O (stereo not drawn) | 992 | > 100 | 215 | 6.45 | 113 |  | 3720 | > 51.3 | 111 | > 100 | 280 | 8.72 | 217 | > 39.7 | 39.7 | 6.72 | 448 |  | 5.36 | > 52.6
12 | C=C1c2c(C)nn(-c3ccc(C#CCOC4OC(CO)C(O)C(O)C4O)cc3)c2N(C)C23C[C@H]1C1(C)c4c(C)nn(-c5ccc(C#CCOC6OC(CO)C(O)C(O)C6O)cc5)c4N(C)C(C)(C[C@H]12)C3 (stereo partly drawn) | 1680 | 9.94 | 1670 | 3.44 | 1620 | 3.7 | 687 | 6.8 | 290 | 1.72 | 2330 | 6.59 | 1040 | 5.03 | 702 | 2.56 | 1520 | 3.8 | 1.78 | 3.54
13 | CCN1C(=O)c2ccc3c4c(ccc(c24)C1=O)C(=O)N(CCCNCc1ccccc1OC)C3=O | 152 | 0.345 | 690 | 2.1 | 1280 | 2.77 | 1000 | 3.29 | 1640 | 5.53 | 782 | 3.68 | 793 | 9.41 | 613 | 5.18 | 335 | 1.04 | 1.35 | 3.74

— PubChem BioAssay (NCI)
